Reference: patent US8623601B2, “Methods of diagnosing cancer” (Cognosci, Inc., priority 2011, dated 2014)
Read-outs that look alike come from different tables or passages of the source. *1 amine or outer side, *2 acyl side, *3 side chain or, on linkers, in order; H or OH if unused. Bridges are numbered along the chain shown (N, C = ends). Roman numbers before positions name the chains, in order. [ ]: non-standard residue; d: D form. BMOE = O=C1CC([*:1])C(=O)N1CCN1C(=O)CC([*:2])C1=O; Aib = CC(C)(N)C(=O)O

Assays:
normal B-cells = experiment: Cytotoxicity to normal B-cells from healthy volunteers, MTS assay; format: cell-based, human; details: normal B-cells from healthy volunteers, 72 hours, read-out: Normal ED50
Text: (§1) CLL was diagnosed according to the NCl Working Group criteria (Hallek et al. 2008). Healthy volunteers and CLL patients from the Duke University and Durham Va. Medical Centers were enrolled in IRB-approved research protocols to collect clinical data and blood. Subjects gave signed informed consent prior to phlebotomy, in accordance with the Declaration of Helsinki. Blood was collected from participants into heparin-tubes, and CLL cells were purified as noted before (Weinberg et al. 2007). Briefly, CLL cells were isolated using the RosetteSep® B cell enrichment cocktail (catalog #15024/15064; Stem Cell Technologies, Vancouver, BC, Canada) according to the manufacturer's directions. This method yielded CLL cell purity of greater than 95% CD5+CD19+ B-cells as determined by flow cytometry. Normal B-lymphocytes were isolated using the EasySep® B-cell enrichment cocktail (catalog #15024/15064; Stem Cell Technologies, Vancouver, BC, Canada) according to the manufacturer's directions, with a purity of >94% CD 19+ lymphocytes.
(§2) For cytotoxicity assays, 3×10^6 CLL cells/well were cultured in 24 well tissue culture plates in 1.5 mL of Hybridoma SFM™ (Gibco, Long Island, N.Y.) as described by Levesque et al. (Levesque et al. 2001) (Levesque et al. 2003) All cultures were incubated at 37° C., 5% CO2 in air. […] (Levesque et al. 2003)
(§3) Based on the induction of apoptosis in CLL cells, we tested several analogs of COG449 for cytotoxicity against CLL cells freshly isolated from a number of patients and against normal B-cells from healthy volunteers (Table 4). Cells were cultured with the agents for 72 hours, and the viable cells were assessed for cytotoxicity using the MTS assay. […] We also analyzed the effect of shRNA-mediated knockdown of SET on the growth of B-cell lymphoma cell lines.

CLL cells = experiment: CLL cell cytotoxicity, MTS assay; format: cell-based, human; details: 72 hours
Description: as §2, §3

Ramos cells = experiment: Growth inhibition / cytotoxicity in Ramos NHL cells; format: cell-based, human
Description: FIG. 6: SET antagonism is cytotoxic to CLL cells and inhibits NHL cell growth in vitro. (A) Dose response curves for COG445 treatment of CLL cells from 7 patients or normal B-cells from 5 volunteers. (B) Dose response curves for COG449 treatment on CLL cells from 7 patients. (C) Raji NHL cells were transduced with SET shRNA or control lentivirus and knockdown was assessed by Western blotting from two samples of each.
FIG. 7: Cytotoxicity of COG449 can be modulated by a PP2A inhibitor in Ramos cells. Ramos cells were pretreated for 5 minutes with or without 1 nM OA before treatment with 1 μM COG449. After 24 hours, cytotoxicity was assessed using the […] assay reagent to detect viable cells.
as §3

SET (α and β isoforms) = details: 10 μM biotin-labeled peptide, pull-down on beads, Western blot
Description: Complexes bound to Neutravidin-Agarose (NA) beads were then detected by Western blotting. Lane 1 contains 20 μg of cell lysate as a loading control. […] Lysates were incubated with biotin reagents for 1 hr before addition of NA beads and then incubated for an additional hour. After rigorous washing, the beads were boiled in SDS PAGE buffer, separated by PAGE and blotted to nitrocellulose.
CLL cells were lysed in NP40 buffer (50 mM Tris, 0.2% NP40, 150 mM NaCl) by a single freeze thaw cycle. Lysate protein concentration was adjusted to 5 mg/mL. Streptavidin agarose beads (1 mL) were washed with 10 mL of NP40 buffer, and 0.5 mL of beads was added to 1 mL of extract. ABeads were then collected by filtration through a disposable mini-column (Bio-Rad), and the flow-through extract was collected for analysis. Following washing with 100 mL of chilled NP40 buffer, the beads were removed from the column, collected by centrifugation, and 75 μL of 4× Laemmli buffer was added. Beads were vortexed and heated to 90° C. for 10 min to ensure that all proteins were released from the beads. Proteins were separated by SDS PAGE and Western blotting was used to determine if the COG133 and COG112 peptides bound to both isoforms of SET from a CLL patient sample.

[1] = Cytotoxicity to normal B-cells from healthy volunteers, MTS assay; format: cell-based, human; details: human
Text: as §1, §2, §3

[2] = CLL cells freshly isolated from patients, read-out: CLL ED50
[3] = CLL cells from 7 patients, read-out: ED50 of cytotoxicity to CLL cells

Sequence of SET (α and β isoforms) (Q01105 38-290 limits assumed): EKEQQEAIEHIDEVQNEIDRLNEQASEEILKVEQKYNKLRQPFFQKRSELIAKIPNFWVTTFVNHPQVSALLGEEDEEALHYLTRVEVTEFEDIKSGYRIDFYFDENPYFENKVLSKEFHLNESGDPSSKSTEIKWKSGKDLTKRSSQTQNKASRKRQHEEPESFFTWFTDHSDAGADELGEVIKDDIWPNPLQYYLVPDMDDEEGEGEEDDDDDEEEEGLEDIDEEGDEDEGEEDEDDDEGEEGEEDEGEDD

“AS(Aib)LRKL(Aib)KRLL (Ac-AS[Aib]LRKL[Aib]KRLL-NH2) [COG1410, Aib = aminoisobutyric acid]” gave an EC50 (normal B-cells) of over 20 µM and an EC50 (CLL cells; [2]) of 5700 ± 3000 nM.

Work on LLRKRLKRLHSALRVRL [COG056] yielded an EC50 (normal B-cells) of over 20 µM and an EC50 (CLL cells; [2]) of 12900 ± 4600 nM.

For “I: Ac-RQIKIWFQNRRMKWKKCLRVRLASHLRKLRKRLL-NH2 / II: Ac-RQIKIWFQNRRMKWKKCLRVRLASHLRKLRKRLL-NH2 (linker I:17-II:17 via BMOE) [COG449]”, the “cytotoxicity in Ramos cells” value (Ramos cells; 1 μM COG449, 24 hours) was “robust cytotoxic effect”, the “cytotoxicity in Ramos cells with PP2A inhibitor” value (Ramos cells; 1 μM COG449 after pretreatment with 1 nM OA, 24 hours) was “partially counteracted by treatment with OA” and the EC50 (CLL cells; [3]) was 103 nM.

For “RQIKIWFQNRRMKWKK-C-LRVRLASHLRKLRKRLL [COG112]”, the EC50 (normal B-cells) was over 20 µM, the “binding to SET isoforms in CLL cell lysate” value (SET (α and β isoforms)) was “binds to both SET isoforms” and the EC50 (CLL cells; [2]) was 1400 ± 700 nM.

With “I: Ac-RQIKIWFQNRRMKWKKCLRVRLASHLRKLRKRLL-NH2 / II: Ac-RQIKIWFQNRRMKWKKCLRVRLASHLRKLRKRLL-NH2 (disulfide I:17-II:17 (inferred)) [COG445]” the EC50 at 72 h [1] was at least 10 µM, the EC50 (normal B-cells) was over 10 µM and the EC50 (CLL cells; [3]) was 110 nM.

With oakadaic acid [reference compound] the “cytotoxicity in Ramos cells” value (Ramos cells; 1 nM OA alone, 24 hours) was “not cytotoxic”.

With LRVRLASHLRKLRKRLL [COG133] the EC50 (normal B-cells) was over 20 µM, the “binding to SET isoforms in CLL cell lysate” value (SET (α and β isoforms)) was “binds to both SET isoforms” and the EC50 (CLL cells; [2]) was 4400 ± 1500 nM.
